Data published in US12649745B2, “Amino-pyrimidine cyclo-amides” (Hoffmann-La Roche Inc., priority 2020, dated 2026).

Biological target: T1, human Autotaxin (ATX) (Homo sapiens, UniProt Q13822)
T1 construct: generate a full length human ENPP2 ORF with or without a 3′-6×His tag; 6xHis (C); made in house; host or cells: FreeStyle 293-F cells (transient transfection), purified from culture supernatant
Test: Human ATX enzyme inhibition assay (LPC substrate, choline oxidase/HRP/Amplex Red coupled format)
Assay type: biochemical
Settings: recombinant hATX 1 nM, 18:1 LPC 30 μM, fluorescence at 90 mins minus 5 mins
Procedure: Human ATX Enzyme Inhibition Assay
To identify inhibitors of the human Autotaxin (ATX) enzyme an in-vitro biochemical profiling assay has been developed using lysophosphatidylcholine (LPC) as substrate and recombinant enzyme. ATX activity is assayed via a coupled enzyme format where choline produced from LPC hydrolysis is converted to hydrogen peroxide by choline oxidase (CO). Hydrogen peroxide is in turn used as a co-substrate by horseradish peroxidase (HRP) to oxidise Amplex Red® and generate the red-fluorescent product, Resorufin.
50 mM Tris-HCl (pH 8.0); 120 mM NaCl; 20 mM CaCl2; 5 mM KCl; 1 mM MgCl2; 0.01% Triton X-100, sterile-filtered and stored at 4° C.
50 mM Tris-HCl (pH 8.0); 150 mM NaCl
human Autotaxin (hATX): 0.97 mg/ml (9.718 μM) Molecular weight 99817. Working solution of 1.5 μM used in this assay.
100 mM 18:1 LPC dissolved in reagent dilution-buffer.
500 U/ml Choline Oxidase in reagent dilution buffer.
2540 U/ml Horseradish Peroxidase, in reagent dilution buffer (10.95 mg/ml).
20 mM Amplex Red (10-Acetyl-3,7-dihydroxy-phenoxazin) in DMSO.
Black, 384-well plate, black with clear bottom, non-treated surface.
Test compounds are received pre-diluted in DMSO as an 11-point concentration-response (0.5 mM highest concentration; 1 in 3.162 dilution). Test compounds are pre-diluted 1:1 (10 μL compound+10 μL assay buffer) in a 96-well conical bottomed plate prior to use.
ATX is diluted to 2.2 nM in assay buffer. Choline oxidase and horseradish peroxidase are diluted to 7.3 U/ml and 14.7 U/ml, respectively. 18:1 LPC and Amplex Red® are diluted to 110 μM and 183.3 μM, respectively (solution protected from light). 2.2 μL of compound pre-dilution or 50% DMSO is added to the reaction plate followed by 25 μL of ATX or assay buffer (negative control). Assay plate is mixed and incubated at room temperature for 10 mins. 15 μL of choline oxidase/horseradish peroxidase is then added. To initiate the reaction 15 μL of LPC 18:1/Amplex Red is added. Assay plate is mixed and incubated at room temperature in the dark. Fluorescence is measured at 5 mins (for background subtraction) and 90 mins.
Final Assay Concentrations:
Horse Radish Peroxidase: 4 U/ml
Fluorescence at 5-minutes is subtracted from the 90-minute end point data and normalized with respect to the positive control. IC50 values are calculated.
Results in the enzymatic ATX inhibition assay are provided for compounds of formula (I).

Row | SMILES | IC50 [nM]
1 | N#Cc1cc(Cl)cc2c1C[C@@H](Nc1ncc3c(n1)CN(C(CF)CF)C3=O)C2 [Example 26, (S)-6-chloro-2-((6-(1,3-difluoropropan-2-yl)-5-oxo-6,7-dihydro-5H-pyrrolo[3,4-d]pyrimidin-2-yl)amino)-2,3-dihydro-1H-indene-4-carbonitrile] | 4
2 | N#Cc1cc(Cl)cc2c1C[C@@H](Nc1ncc3c(n1)CCNC3=O)C2 [Example 27, (S)-6-chloro-2-((5-oxo-5,6,7,8-tetrahydropyrido[4,3-d]pyrimidin-2-yl)amino)-2,3-dihydro-1H-indene-4-carbonitrile] | 3
3 | CC1(CN2Cc3nc(N[C@H]4Cc5cc(Cl)cc(C#N)c5C4)ncc3C2=O)COC1 [Example 28, (S)-6-chloro-2-((6-((3-methyloxetan-3-yl)methyl)-5-oxo-6,7-dihydro-5H-pyrrolo[3,4-d]pyrimidin-2-yl)amino)-2,3-dihydro-1H-indene-4-carbonitrile] | 6
4 | N#Cc1cc(Cl)cc2c1C[C@@H](Nc1ncc3c(n1)CCN(C1CCOCC1)C3=O)C2 [Example 29, (S)-6-chloro-2-((5-oxo-6-(tetrahydro-2H-pyran-4-yl)-5,6,7,8-tetrahydropyrido[4,3-d]pyrimidin-2-yl)amino)-2,3-dihydro-1H-indene-4-carbonitrile] | 4
5 | CC(C)N1CCc2nc(N[C@H]3Cc4cc(Cl)cc(C#N)c4C3)ncc2C1=O [Example 30, (S)-6-chloro-2-((6-isopropyl-5-oxo-5,6,7,8-tetrahydropyrido[4,3-d]pyrimidin-2-yl)amino)-2,3-dihydro-1H-indene-4-carbonitrile] | 2
6 | N#Cc1cc(Cl)cc2c1C[C@@H](Nc1ncc3c(n1)CCN(CC1CC1)C3=O)C2 [Example 31, (S)-6-chloro-2-((6-(cyclopropylmethyl)-5-oxo-5,6,7,8-tetrahydropyrido[4,3-d]pyrimidin-2-yl)amino)-2,3-dihydro-1H-indene-4-carbonitrile] | 2
7 | CCN1Cc2nc(N[C@H]3Cc4cc(Cl)cc(C#N)c4C3)ncc2C1=O [Example 33, (S)-6-chloro-2-((6-ethyl-5-oxo-6,7-dihydro-5H-pyrrolo[3,4-d]pyrimidin-2-yl)amino)-2,3-dihydro-1H-indene-4-carbonitrile] | 2
8 | CCN1CCc2nc(N[C@H]3Cc4cc(Cl)cc(C#N)c4C3)ncc2C1=O [Example 34, (S)-6-chloro-2-((6-ethyl-5-oxo-5,6,7,8-tetrahydropyrido[4,3-d]pyrimidin-2-yl)amino)-2,3-dihydro-1H-indene-4-carbonitrile] | 3
9 | N#Cc1cc(Cl)cc2c1C[C@@H](Nc1ncc3c(n1)CNC3=O)C2 [Example 35, (S)-6-chloro-2-((5-oxo-6,7-dihydro-5H-pyrrolo[3,4-d]pyrimidin-2-yl)amino)-2,3-dihydro-1H-indene-4-carbonitrile] | 2
10 | N#Cc1cc(Cl)cc2c1C[C@@H](Nc1ncc3c(n1)CCN(CC(F)(F)F)C3=O)C2 [Example 36, (S)-6-chloro-2-((5-oxo-6-(2,2,2-trifluoroethyl)-5,6,7,8-tetrahydropyrido[4,3-d]pyrimidin-2-yl)amino)-2,3-dihydro-1H-indene-4-carbonitrile] | 3
